We go through 27 compounds from ChEMBL document CHEMBL1165979, “Peptide fragmentation as an approach in modeling of an active peptide and designing a competitive inhibitory peptide for HMG-CoA reductase” (Bioorg Med Chem, 2010).

Non-standard residues stand in square brackets, D forms with d. Residues, ends and D or L forms follow the SMILES beside them. Phe(4-F) = N[C@@H](Cc1ccc(F)cc1)C(=O)O

The target in one experiment is T1, 3-hydroxy-3-methylglutaryl-coenzyme A reductase (Homo sapiens, UniProt P04035).
T1 sequence (P04035 whole entry): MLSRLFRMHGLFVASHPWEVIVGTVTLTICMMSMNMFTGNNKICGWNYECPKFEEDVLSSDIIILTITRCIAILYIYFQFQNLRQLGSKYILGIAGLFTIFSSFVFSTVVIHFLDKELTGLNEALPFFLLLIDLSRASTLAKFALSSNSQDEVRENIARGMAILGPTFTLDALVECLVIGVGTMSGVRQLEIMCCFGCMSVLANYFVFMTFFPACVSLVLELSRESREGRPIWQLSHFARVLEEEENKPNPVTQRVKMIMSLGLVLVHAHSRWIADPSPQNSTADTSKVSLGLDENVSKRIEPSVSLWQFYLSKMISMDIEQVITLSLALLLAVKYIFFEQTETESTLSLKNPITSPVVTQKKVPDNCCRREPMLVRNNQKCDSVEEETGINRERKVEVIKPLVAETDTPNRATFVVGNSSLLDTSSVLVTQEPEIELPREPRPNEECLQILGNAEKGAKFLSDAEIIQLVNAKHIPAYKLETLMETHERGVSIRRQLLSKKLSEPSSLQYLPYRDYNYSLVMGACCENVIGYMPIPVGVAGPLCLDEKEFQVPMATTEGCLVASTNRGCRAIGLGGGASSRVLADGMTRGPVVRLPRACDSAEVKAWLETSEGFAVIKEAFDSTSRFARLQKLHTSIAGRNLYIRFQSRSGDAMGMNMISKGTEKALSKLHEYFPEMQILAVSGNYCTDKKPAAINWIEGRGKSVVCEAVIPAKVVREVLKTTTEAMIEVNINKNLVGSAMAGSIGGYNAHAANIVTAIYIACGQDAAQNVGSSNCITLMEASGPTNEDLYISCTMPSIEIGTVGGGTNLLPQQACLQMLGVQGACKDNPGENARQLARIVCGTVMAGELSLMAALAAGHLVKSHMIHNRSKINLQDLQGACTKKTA
Briefly: Competitive inhibition of HMG-CoA reductase by Dixon plot analysis.
Conditions: not given; call rule not given here
For orientation: Ki means the equilibrium dissociation constant of an inhibitor or competing ligand from its target. Lower therefore signals tighter binding. `C[C@@H](O)[C@H](NC(=O)[C@@H]1CCCN1C(=O)[C@H](Cc1ccc(F)cc1)NC(=O)CN)C(=O)NCC(=O)NCC(=O)O` (H-G[Phe(4-F)]PTGG-OH) returned a Ki of 0.26 µM.
As to H-DFGYVAE-OH, the affinity corresponds to a Ki of 0.051 µM.

The target in a further experiment is T1, 3-hydroxy-3-methylglutaryl-coenzyme A reductase. The experiment in a line: Inhibition of HMG-CoA reductase by spectrophotometry.
Conditions: not given
A word on the IC50: it is the concentration that gives 50% inhibition. Turning to `NCC(=O)N[C@@H](Cc1ccc(F)cc1)C(=O)N1CCC[C@H]1C(=O)NCC(=O)NCC(=O)NCC(=O)O` (H-G[Phe(4-F)]PGGG-OH), the IC50 result is “Not Active”.
On to H-DFGYVAG-OH, for which the IC50 entry was “Not Active”.

The experiment is the same for the next values; noted with them: read-out: IC50.
As to `CC(C)[C@H](NC(=O)[C@H](Cc1ccc(F)cc1)NC(=O)CNC(=O)[C@@H](N)Cc1ccccc1)C(=O)N[C@@H](C)C(=O)N[C@@H](CCC(=O)O)C(=O)O` (H-FG[Phe(4-F)]VAE-OH), the half-inhibitory concentration (IC50) amounted to 8.52 µM.
Consider `NCC(=O)N[C@@H](Cc1ccc(F)cc1)C(=O)N1CCC[C@H]1C(=O)N[C@@H](CC(=O)O)C(=O)NCC(=O)NCC(=O)O` (H-G[Phe(4-F)]PDGG-OH), for which the IC50 came out at 6.95 µM.
As to `NCC(=O)N[C@@H](Cc1ccc(F)cc1)C(=O)N1CCC[C@H]1C(=O)N[C@@H](CCC(=O)O)C(=O)NCC(=O)NCC(=O)O` (H-G[Phe(4-F)]PEGG-OH), the IC50 is 0.75 µM.
`C[C@@H](O)[C@H](NC(=O)[C@@H]1CCCN1C(=O)[C@H](Cc1ccc(F)cc1)NC(=O)CN)C(=O)NCC(=O)NCC(=O)O` (H-G[Phe(4-F)]PTGG-OH): the IC50 was 4.82 µM.
With `CC[C@H](C)[C@H](N)C(=O)N[C@@H](C)C(=O)N[C@H](C(=O)N[C@@H](CCC(=O)O)C(=O)O)C(C)C` (H-IAVE-OH), the IC50 is 75.2 µM.
The same measure, in the same setting: next, `CC[C@H](C)[C@H](N)C(=O)N[C@H](C(=O)N[C@@H](C)C(=O)N[C@@H](CCC(=O)O)C(=O)O)C(C)C` (H-IVAE-OH): 52.7 µM; `CC(C)C[C@H](N)C(=O)N1CCC[C@H]1C(=O)N[C@@H](Cc1ccc(O)cc1)C(=O)N1CCC[C@H]1C(=O)O` (H-LPYP-OH): 485 µM; `CC(C)[C@H](NC(=O)[C@H](C)NC(=O)[C@@H](N)Cc1ccc(O)cc1)C(=O)N[C@@H](CCC(=O)O)C(=O)O` (H-YAVE-OH): 44.8 µM.
Turning to `CC(C)[C@H](NC(=O)[C@@H](N)Cc1ccc(O)cc1)C(=O)N[C@@H](C)C(=O)N[C@@H](CCC(=O)O)C(=O)O` (H-YVAE-OH), the IC50 stood at 41.2 µM.
In the case of `CC(C)[C@H](NC(=O)[C@@H](N)Cc1ccc(F)cc1)C(=O)N[C@@H](C)C(=O)N[C@@H](CCC(=O)O)C(=O)O` (H-[Phe(4-F)]VAE-OH), the concentration for half-maximal inhibition (IC50) stood at 3.84 µM.
Take H-DFGYVAE-OH: the IC50 is 0.16 µM.
Consider H-EFGYVAE-OH, for which the IC50 came to 0.24 µM.
Turning to H-FFYVAE-OH, the IC50 is 2.56 µM.
The same measure, in the same setting: next, H-FGYVAE-OH: 0.41 µM; H-FPYVAE-OH: 1.47 µM.
On to H-GFGYVAE-OH, for which the IC50 stood at 0.27 µM.
For the compound H-GFPDGG-OH, the IC50 was 1.52 µM.
Regarding H-GFPEGG-OH, the IC50 was found to be 1.78 µM.
With H-GFPTGG-OH, the IC50 was determined as 16.9 µM.
The same measure, in the same setting: the figure for H-GLPDGG-OH is 22.3 µM; for H-GLPEGG-OH it is 27.3 µM.
For H-GLPTGG-OH, the IC50 stood at 19.4 µM.
The same measure, in the same setting: the figure for H-IAVPGEVA-OH is 201 µM; for H-IAVPTGVA-OH it is 152 µM.
The same measure, in the same setting: the figure for H-TFGYVAE-OH is 0.26 µM.
